Legend:
c-Fos = assay: Western blot of Fos protein; type: cell-based, human; details: K562-NIC-1 versus K562-Babe
Description: (§1) Stable Transfection—K562 cells were stably transfected by electroporation with a Bio-Rad Gene pulser electroporator. Cells (5×10^6) were washed with ice-cold PBS, resuspended in 0.5 ml of ice-cold PBS, mixed with 5 μg linearized plasmid DNA, and subjected to electroporation (960 microfarad; 220 V) in a 0.4 cm-wide electroporation cuvette (BTX). pBabe and pNIC-1 were linearized with NotI. Cells were then added to 20 ml of complete IMEM, grown for 48 h, and diluted in complete IMEM containing 1.5 μg/ml puromycin (pools of K562-Babe and K562-NIC-1 cells). Stably transfected cells were analyzed for erythroid differentiation as soon as the pools were generated by benzidine staining to reduce the probability of phenotypic changes that may result from prolonged growth.
To measure the phosphorylation state of components of the MAPK pathway, K562-Babe and K562-NIC-1 cells (1×10^6) were collected after treatment with 5 nM TPA or DMSO for 30 min. Cells were washed once with ice-cold PBS, cell pellets were resuspended in 30 μl ice-cold PBS and were immediately boiled in 70 μl SDS sample buffer for 10 min. Proteins (10 μl) were resolved by SDS-PAGE on a 10% acrylamide gel and transferred to Immobilon P membrane (Millipore). […] Antigen-antibody complexes were detected with ECL Plus™ (Amersham Life Science) according to manufacturer's instructions.

human Aγ globin promoter = assay: pGL3γLuc reporter, transient transfection of K562 cells; type: cell-based
Description: (§2) Transient Transfections—K562 cells (5×10^5) were collected by centrifugation at 240×g for 8 min at 4° C. and resuspended in 4 ml of complete IMEM. Plasmid DNAs (1 μg of reporter and 2 μg of effector) were added to 150 μl of IMEM, incubated with Superfect (4 μl/1 μg DNA; Qiagen) for 10 min at room temperature and then added to cells.
For each transfection, cells were incubated for 26 h after transfection and then treated with TPA (final concentration: 5 nM) or the vehicle (DMSO). After incubating for another 12 or 16 h, cells were harvested and assayed for luciferase activity. Luciferase activity was normalized by the protein content of the lysates, determined by Bradford assay using γ-globulin as a standard.

NF-κB = NF-κB luciferase reporter (p3×κBluc), transient transfection of K562 cells; type: cell-based, human; details: TPA
Text: (§3) Plasmids—The pBabe-NIC-1 (pNIC-1) expression vector encoding constitutively active Notch-1 (NIC-1) was described previously (36,37,51). This vector was derived from the pBabe-puro retroviral vector and includes a cDNA sequence encoding amino acids 1759-2556 of human Notch-1 with a Myc tag fused to its carboxyl terminus. Human NIC-1 deletion mutants were generated by PCR using a full-length human Notch-1 expression vector as the template. The Notch-dependent reporter plasmid containing four CBF1 binding sites and an simian virus 40 promoter fused to luciferase (p4×CBF1luc) was described previously (52). The AP-1 reporter plasmid (p1×AP1luc) containing a collagenase promoter fragment (−73/+67) with a single AP-1 binding site in the luciferase reporter vector pGL2-basic (Promega) was described previously (53). The NF-κB reporter plasmid (p3×κBluc) containing three NF-κB binding sites and a minimal promoter fused to luciferase was a kind gift of Dr. Shigeki Miyamoto (University of Wisconsin Medical School). […]
(§4) For each transfection, cells were incubated for 26 h after transfection and then treated with TPA (final concentration: 5 nM) or the vehicle (DMSO). […] Luciferase activity was normalized by the protein content of the lysates, determined by Bradford assay using γ-globulin as a standard.

GAL4-c-Jun = GAL4-c-Jun transactivation, transient assays in K562 cells; type: cell-based, human; details: K562, data not presented
CMV enhancer = assay: pCMVβgal β-galactosidase reporter, transient transfection of K562 cells; type: cell-based, human
Description: as §2, §4

MMP1 = assay: Northern blotting of MMP1 transcripts in K562-Babe and K562-NIC-1 cells; type: cell-based, human; details: 5 nM TPA 12 h, stably transfected NIC-1
Description: as §1
Northern Blotting—Total RNA from K562-Babe and K562-NIC-1 cells was extracted with Triazol (Life Technologies, Inc.). Ten μg of RNA per sample was electrophoresed on a 1% agarose, 6.6% formaldehyde gel and then transferred overnight to a Magnacharge nylon membrane (Osmonics). RNA was cross-linked to the membrane by UV irradiation. Membranes were prehybridized for 30 min at 60° C. in ExpressHyb hybridization solution (Clontech). […] Radioactivity was quantitated by PhosphorImager analysis with ImageQuant software (Molecular Dynamics).

CSL (CBF1) = assay: CSL-dependent luciferase reporter, transient transfection of HeLa cells; type: cell-based, human
Text: as §3, §4

NIC-1: constitutively active Notch-1 intracellular domain, amino acids 1759-2556 of human Notch-1 with carboxyl-terminal Myc tag, expressed from pBabe-NIC-1
effect on Fos protein levels (c-Fos): did not affect
effect on TPA-induced activity of pGL3γLuc (human Aγ globin promoter; K562, TPA-induced): without affecting
increase of basal activity of pGL3γLuc (human Aγ globin promoter; K562, basal): ~80%
effect on TPA-induced NF-κB-dependent reporter activity (NF-κB): no effect
inhibition of GAL4-c-Jun-mediated transactivation (GAL4-c-Jun): did not significantly inhibit
increase of TPA induced activity of pCMVβgal (CMV enhancer; K562, TPA induced): ~2 fold
effect on basal activity of pCMVβgal (CMV enhancer; K562, basal): no effect
TPA induction of MMP1 transcript levels in K562-NIC-1 versus K562-Babe cells (MMP1): considerably lower
activation of CSL-dependent reporter activity (CSL (CBF1)): strongly activated

— patent US20030148954A1, “Agents and methods for modulating activator protein-1-mediated cellular processes” (Wisconsin Alumni Research Foundation, priority 2001, published 2003)
